47 compounds from US7557110B2, “Pyrazolo[1,5-A] pyrimidine derivatives” (Teijin Pharma Limited, priority 2003, dated 2009) can be followed below.

One assay concerns the target MAPKAP-K2 (Homo sapiens, UniProt P49137). The experiment in a line: MAPKAP-K2 enzyme activity inhibition (33P-ATP filter plate kinase assay). Also: key: +: active; ++: more active; +++: very active. It is filed as biochemical. As to conditions: MAPKAP-K2 inhibitory activity; assays conducted at typically 1-100 μM. The protocol:
[General Procedure for Measurement of MAPKAP-K2 Enzyme Activity Inhibition]
After conducting the reaction for 30 minutes at room temperature, an equivalent volume of a 200 mM phosphoric acid solution was added to suspend the reaction, and 90 μL of the reaction product was adsorbed onto a MultiScreen PH plate (Millipore) and rinsed with a 100 mM phosphoric acid solution. After drying the plate, 30 μL of MicroScint-O (Packard BioScience) was added, and the cpm was measured with a scintillation counter to determine the inhibiting activity. Substrate peptide is […]

For another assay, the target named is CDK-2 (Homo sapiens, UniProt P24941). In words: CDK-2 enzyme activity inhibition (33P-ATP filter plate kinase assay). It is filed as biochemical. The text has this:
[General Procedure for Measurement of CDK-2 Enzyme Activity Inhibition]

Setting [1] is: read-out: CDK-2 inhibition IC50.

The structures appear in SMILES notation. pIC50: −log10 of the molar value. Like-named read-outs stand apart in the source and are kept apart here. Bounds are passed on as bounds.

MAPKAP-K2, sequence (P49137 whole entry): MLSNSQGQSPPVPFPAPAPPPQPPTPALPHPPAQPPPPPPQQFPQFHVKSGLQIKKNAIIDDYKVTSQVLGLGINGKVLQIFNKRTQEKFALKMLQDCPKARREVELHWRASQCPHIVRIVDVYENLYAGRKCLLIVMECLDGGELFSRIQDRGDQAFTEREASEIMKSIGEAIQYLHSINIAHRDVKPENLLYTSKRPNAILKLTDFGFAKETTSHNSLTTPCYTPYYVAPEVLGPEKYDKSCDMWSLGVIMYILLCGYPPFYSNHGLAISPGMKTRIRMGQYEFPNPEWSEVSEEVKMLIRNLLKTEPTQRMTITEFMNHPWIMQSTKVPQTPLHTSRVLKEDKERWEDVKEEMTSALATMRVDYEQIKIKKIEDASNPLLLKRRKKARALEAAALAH

As a reminder, the pIC50 is the negative decadic logarithm of the IC50, by convention in mol/L. Regarding `Cc1c(N[C@H]2CC[C@H](N)CC2)nc2ccnn2c1Nc1ccc(-c2ccccc2F)cc1` [Compound 305], the “activity (efficacy against MAPKAP-K2)” value on MAPKAP-K2 is given as “+++”. In addition, on CDK-2 (setting [1]), the pIC50 is greater than 4.00.
The matching figures for `CCOc1cccc(Nc2c(C)c(N[C@H]3CC[C@H](N)CC3)nc3ccnn23)c1` [Compound 81]: “+++” and greater than 4.00.
Take `CCOc1ccc(Nc2c(C)c(N[C@H]3CC[C@H](N)CC3)nc3c(C(=O)Nc4ccccn4)cnn23)cc1` [Compound 359]: at MAPKAP-K2, the “activity (efficacy against MAPKAP-K2)” value is reported as “++”. The pIC50 on CDK-2 (setting [1]) was greater than 4.00.
The matching figures for `CCOc1ccc(Nc2c(C)c(N(C)C3CCCNC3)nc3ccnn23)cc1` (stereo not shown) [Compound 340]: “+” and greater than 4.00.
On to `Cc1c(N[C@H]2CC[C@H](N)CC2)nc2ccnn2c1Nc1ccc(-c2cc3ccccc3[nH]2)cc1` [Compound 423], for which, on MAPKAP-K2, the “activity (efficacy against MAPKAP-K2)” value is given as “+++”. Moreover, the pIC50 on CDK-2 (setting [1]) is greater than 4.00.
On the same counts, the results for `CCOc1ccc(Nc2c(C)c(N[C@@H]3CN[C@@H](C(=O)O)C3)nc3ccnn23)cc1` [Compound 772] are “++” and greater than 4.00.
On the same counts, the results for `CCOC(=O)c1ccc(Nc2c(CC)c(N[C@H]3CC[C@H](N)CC3)nc3ccnn23)cc1` [Compound 70] are “+++” and greater than 4.00.
On the same counts, the results for `Cc1c(N[C@H]2CC[C@H](N)CC2)nc2ccnn2c1Nc1ccc(C(=O)c2ccccc2)cc1` [Compound 778] are “+++” and greater than 4.00.
On to `Cc1c(N[C@H]2CC[C@H](N)CC2)nc2ccnn2c1Nc1ccc(C(=O)Nc2ccccc2)cc1` [Compound 776], for which the “activity (efficacy against MAPKAP-K2)” value on MAPKAP-K2 is “+++”. Further, on CDK-2 (setting [1]), the pIC50 is greater than 4.00.
On to `CCCOc1ccc(Nc2c(C)c(N[C@H]3CC[C@H](N)CC3)nc3ccnn23)cc1` [Compound 201], for which the “activity (efficacy against MAPKAP-K2)” value on MAPKAP-K2 is “+++”. Besides, at CDK-2 (setting [1]), the pIC50 is greater than 4.00.
On the same counts, the results for `CCOc1ccc(Nc2c(OC)c(NC3CCCNC3)nc3ccnn23)cc1` (stereo not shown) [Compound 173] are “+++” and greater than 4.00.
In the case of `COc1ccccc1-c1ccc(Nc2c(C)c(N[C@H]3CC[C@H](N)CC3)nc3ccnn23)cc1` [Compound 287], the “activity (efficacy against MAPKAP-K2)” value on MAPKAP-K2 was “+++”. Moreover, the pIC50 on CDK-2 (setting [1]) was greater than 4.00.
As for `Cc1c(N[C@H]2CC[C@H](N)CC2)nc2c(C(=O)C(F)(F)F)cnn2c1Nc1ccc(I)cc1` [Compound 417, 1-{5-[(trans-4-aminocyclohexyl)amino]-7-[(4-iodophenyl)amino]-6-methyl(pyrazolo[1,5-a]pyrimidin-3-yl)}-2,2,2-trifluoroethan-1-one], the “activity (efficacy against MAPKAP-K2)” value on MAPKAP-K2 is listed as “+”. Also, the pIC50 on CDK-2 (setting [1]) is greater than 4.00.
On the same counts, the results for `Cc1c(N[C@H]2CC[C@H](N)CC2)nc2ccnn2c1Nc1ccc(-c2ccc(Cl)cc2)cc1` [Compound 312] are “+++” and greater than 4.00.
The matching figures for `CCCNc1c(C)c(N[C@H]2CC[C@H](N)CC2)nc2ccnn12` [Compound 87]: “++” and greater than 4.00.
With `Cc1c(N[C@H]2CC[C@H](N)CC2)nc2ccnn2c1Nc1ccc(-c2cccc(C#N)c2)cc1` [Compound 319], on MAPKAP-K2, the “activity (efficacy against MAPKAP-K2)” value is given as “+++”. Besides, on CDK-2 (setting [1]), the pIC50 was greater than 4.00.
On to `Cc1c(N[C@H]2CC[C@H](N)CC2)nc2ccnn2c1Nc1ccc(OC(C)C)cc1` [Compound 197, {5-[(trans-4-aminocyclohexyl)amino]-6-methyl(pyrazolo[1,5-a]pyrimidin-7-yl)}[4-(methylethoxy)phenyl]amine], for which, at MAPKAP-K2, the “activity (efficacy against MAPKAP-K2)” value is “+++”. Also, on CDK-2 (setting [1]), the pIC50 is greater than 4.00.
On the same counts, the results for `Cc1c(N[C@H]2CC[C@H](N)CC2)nc2ccnn2c1Nc1ccc(OCCC2CCCCC2)cc1` [Compound 215] are “++” and greater than 4.00.
The matching figures for `CCOc1ccc(Nc2c(-c3ccc(OC)cc3)c(N[C@H]3CC[C@H](N)CC3)nc3ccnn23)cc1` [Compound 140]: “+++” and greater than 4.00.
The matching figures for `Cc1c(N[C@H]2CC[C@H](N)CC2)nc2ccnn2c1Nc1cccc(OCc2cccc(Cl)c2)c1` [Compound 247]: “++” and greater than 4.00.
For the compound `Cc1c(N[C@H]2CC[C@H](N)CC2)nc2ccnn2c1Nc1ccc(-c2cccc(F)c2)cc1` [Compound 304], the “activity (efficacy against MAPKAP-K2)” value on MAPKAP-K2 is on record as “+++”. At CDK-2 (setting [1]), the pIC50 was greater than 4.00.
Consider `Cc1c(N[C@H]2CC[C@H](N)CC2)nc2ccnn2c1Nc1ccc(-c2ccoc2)cc1` [Compound 309], for which the “activity (efficacy against MAPKAP-K2)” value on MAPKAP-K2 was “+++”. In addition, the pIC50 on CDK-2 (setting [1]) is greater than 4.00.
With `Cc1c(NC2CCC(N)CC2)nc2ccnn2c1Nc1ccc(OCC2CCCCN2)cc1` (stereo not shown) [Compound 251], the “activity (efficacy against MAPKAP-K2)” value at MAPKAP-K2 is recorded as “+++”. Besides, the pIC50 on CDK-2 (setting [1]) is greater than 4.00.
The matching figures for `CCS(=O)(=O)c1ccc(-c2ccc(Nc3c(C)c(N[C@H]4CC[C@H](N)CC4)nc4ccnn34)cc2)cc1` [Compound 351]: “+++” and greater than 4.00.
On the same counts, the results for `CCOC(=O)c1cccc(Nc2c(C)c(N[C@H]3CC[C@H](N)CC3)nc3ccnn23)c1` [Compound 68] are “+++” and greater than 4.00.
Regarding `Cc1c(NC2CCCNC2)nc2ccnn2c1Nc1ccc(-c2cccc(CO)c2)cc1` (stereo not shown) [Compound 445], the “activity (efficacy against MAPKAP-K2)” value on MAPKAP-K2 is “+++”. Besides, the negative-log IC50 (pIC50) at CDK-2 (setting [1]) was greater than 4.00.
As for `Cc1c(NC2CCCNC2)nc2ccnn2c1Nc1ccc(F)c(Cl)c1` (stereo not shown) [Compound 191], the “activity (efficacy against MAPKAP-K2)” value on MAPKAP-K2 is given as “+++”. Also, the negative logarithm of the IC50 (pIC50) against CDK-2 is greater than 4.00.
For the compound `CCOc1ccc(Nc2c(C(C)C)c(N[C@H]3CC[C@H](N)CC3)nc3ccnn23)cc1` [Compound 114], the “activity (efficacy against MAPKAP-K2)” value at MAPKAP-K2 is “+++”. Also, on CDK-2 (setting [1]), the pIC50 is greater than 4.00.
On to `Cc1c(N[C@H]2CC[C@H](N)CC2)nc2ccnn2c1Nc1ccc(-c2cccc(N)c2)cc1` [Compound 288], for which, at MAPKAP-K2, the “activity (efficacy against MAPKAP-K2)” value is recorded as “+++”. Further, at CDK-2 (setting [1]), the pIC50 was greater than 4.00.
On the same counts, the results for `Cc1c(N[C@H]2CC[C@H](N)CC2)nc2ccnn2c1Nc1ccc(OCc2ccc(N)cc2)cc1` [Compound 204] are “++” and greater than 4.00.
For `Cc1c(N[C@H]2CC[C@H](N)CC2)nc2ccnn2c1Nc1ccc(-c2ccsc2C=O)cc1` [Compound 310], the “activity (efficacy against MAPKAP-K2)” value on MAPKAP-K2 is “++”. Moreover, the negative-log IC50 (pIC50) at CDK-2 (setting [1]) is greater than 4.00.
With `Cc1c(N[C@H]2CC[C@H](N)CC2)nc2ccnn2c1Nc1ccc(-c2ccc(F)cc2)cc1` [Compound 303], the “activity (efficacy against MAPKAP-K2)” value at MAPKAP-K2 is given as “+++”. Also, the pIC50 on CDK-2 (setting [1]) is greater than 4.00.
The matching figures for `Cc1c(N[C@H]2CC[C@H](N)CC2)nc2ccnn2c1Nc1ccc(OCc2ccc(Cl)cc2)cc1` [Compound 211]: “+++” and greater than 4.00.
Turning to `Cc1c(N[C@H]2CC[C@H](N)CC2)nc2ccnn2c1Nc1ccc(-c2cncnc2)cc1` [Compound 311], the “activity (efficacy against MAPKAP-K2)” value on MAPKAP-K2 is recorded as “+++”. For the same compound, the pIC50 on CDK-2 (setting [1]) is greater than 4.00.
The matching figures for `Cc1c(N[C@H]2CC[C@H](N)CC2)nc2ccnn2c1Nc1ccc(OCc2ccccc2)cc1` [Compound 176]: “+++” and greater than 4.00.
The matching figures for `Cc1c(N[C@H]2CC[C@H](N)CC2)nc2ccnn2c1Nc1ccc(-c2cccc(C(F)(F)F)c2)cc1` [Compound 324]: “+++” and greater than 4.00.
On to `CCOc1ccc(Nc2c(C)c(N[C@H]3CC[C@H](N)CC3)nc3c(NC)cnn23)cc1` [Compound 437], for which the “activity (efficacy against MAPKAP-K2)” value on MAPKAP-K2 was “+”. In addition, on CDK-2 (setting [1]), the pIC50 was greater than 4.00.
For `Cc1c(NC2CCCNC2)nc2ccnn2c1Nc1ccccc1F` (stereo not shown) [Compound 156], the “activity (efficacy against MAPKAP-K2)” value on MAPKAP-K2 is “+++”. Moreover, on CDK-2 (setting [1]), the pIC50 was greater than 4.00.
On the same counts, the results for `N[C@H]1CC[C@H](Nc2cc(Nc3ccccc3Cl)n3ncc(I)c3n2)CC1` [Compound 47] are “++” and greater than 4.00.
The matching figures for `Cc1c(N[C@H]2CC[C@H](N)CC2)nc2ccnn2c1Nc1ccc(OC2CCCCC2)cc1` [Compound 202]: “+++” and greater than 4.00.
As to `Cc1c(N[C@H]2CC[C@H](N)CC2)nc2ccnn2c1Nc1ccc(OCc2ccccc2Cl)cc1` [Compound 213], on MAPKAP-K2, the “activity (efficacy against MAPKAP-K2)” value is reported as “+++”. In addition, the negative-log IC50 (pIC50) on CDK-2 (setting [1]) was greater than 4.00.
For `Cc1c(N[C@H]2CC[C@H](N)CC2)nc2ccnn2c1Nc1ccc(-c2ccc(CO)cc2)cc1` [Compound 352], the “activity (efficacy against MAPKAP-K2)” value on MAPKAP-K2 is “+++”. Also, at CDK-2 (setting [1]), the pIC50 was greater than 4.00.
The matching figures for `Cc1c(NC2CCC(N)CC2)nc2ccnn2c1Nc1ccc(OCCC2CCCCN2)cc1` (stereo not shown) [Compound 231]: “++” and greater than 4.00.
Turning to `Cc1c(N[C@H]2CC[C@H](N)CC2)nc2ccnn2c1Nc1ccc(-c2ccc(C#N)cc2)cc1` [Compound 318], the “activity (efficacy against MAPKAP-K2)” value on MAPKAP-K2 was “+++”. At CDK-2 (setting [1]), the pIC50 is greater than 4.00.
Regarding `Cc1ccc(Nc2c(C)c(NC3CCCNC3)nc3ccnn23)cc1C` (stereo not shown) [Compound 89], the “activity (efficacy against MAPKAP-K2)” value at MAPKAP-K2 was “+++”. The pIC50 on CDK-2 (setting [1]) is greater than 4.00.
On the same counts, the results for `Cc1c(N[C@H]2CC[C@H](N)CC2)nc2ccnn2c1Nc1ccc(O)cc1` [Compound 196] are “+++” and greater than 4.00.
For `Cc1c(N[C@H]2CC[C@H](N)CC2)nc2ccnn2c1Nc1ccc(OCCc2ccncc2)cc1` [Compound 228], the “activity (efficacy against MAPKAP-K2)” value on MAPKAP-K2 was “+++”. In addition, on CDK-2 (setting [1]), the negative-log IC50 (pIC50) was greater than 4.00.
